Assay results: patent US20240327787A1, “CULTURE MEDIUM, COATING MATRIX AND METHOD FOR EXPANDING MIDBRAIN DOPAMINERGIC PROGENITOR CELLS” (NUWACELL BIOTECHNOLOGIES CO., LTD., priority 2022, published 2024)

Key:
Format in all cases: cell-based, human
imDAPs [1] = test: qRT-PCR analysis of imDAP-specific markers during expansion; conditions: 3 μM CHIR99021 vs 0 and 1.25 μM; 5 days expansion
Procedure: 1. For qRT-PCR analysis of mRNA gene expression, RNA should be harvested from at least 2×10^6 cells.
2. Harvest cells, add 350 μl of buffer RLT+1% (vol/vol) β-mercaptoethanol to the well, transfer the lysate to a 1.5 ml tube, and put it immediately on ice.
3. Perform RNA extraction using the Tiangen Kit (DP430), and follow the manufacturer's protocol ‘Purification of total RNA from animal and human cells’.
4. When the RNA extraction was completed, determine the RNA concentration using a Nanodrop instrument.
5. Perform the first-strand cDNA synthesis reaction with lug of RNA using the HiScript™ II Q RT SuperMIX for qPCR (+gDNA wiper) Kit (Vazyme, #R223-01) for RT-qPCR. Follow the manufacturer's ‘First-Strand cDNA Synthesis’ protocol. This reaction would yield a 20μl product.
6. […]
8. Analyze the samples by running a quantitative PCR on the LightCycler 480 instrument using a 40× cycle two-step protocol with a 60° C., 60 sec annealing/elongation step and a 95° C., 30 sec denaturation step. […]
imDAPs were produced according to the method described in CN201910169525.0. […] When imDAPs reach 100% confluence (4-5 days), cells were passaged enzymatically with 1× TrypLE, centrifuged at 250 g for 5 minutes, counted and replaced on new VTN-coated plates (1 μg/cm^2) at a density of 1×10^5 cells/cm^2 in the expansion medium. imDAPs were continuously expanded for 6 passages. […]

imDAPs [2] = test: imDAP maturation, cell morphology and adhesion (bright-field); conditions: 1 μM IWR1 for at least 3 days vs without; VTN-coated; 1% HhPLT medium
Procedure: were produced according to the method described in CN201910169525.0, and expanded as described in Example 10. The expanded […] were seeded on VTN-coated (1 μg/cm^2) plates at a density of 5×10^5 cells/cm^2 (Day 0), and cultured in the maturation medium ([…]) supplemented with 1 μM IWR1. MM-P used in Example 11 contained the following components: NeurobasalTM medium, 1% (v/v) Glutamax, 0.5 mM Db-cAMP sodium salt, 200 μM ascorbic acid, 20 ng/ml BDNF, 20 ng/ml GDNF, 1 ng/ml TGF-β3, 10 μM DAPT, hPLT (0.5%, 1%, 2%). MM-H used in Example 11 contained the following components: NeurobasalTM medium, 1% (v/v) Glutamax, 0.5 mM Db-cAMP sodium salt, 200 μM ascorbic acid, 20 ng/ml BDNF, 20 ng/ml GDNF, 1 ng/ml TGF-β3, […], HhPLT (0.5%, 1%, 2%). MM-B used in Example 11 contained the following components: Neurobasal, 1% (v/v) Glutamax, 0.5 mM Db-cAMP sodium salt, 200 μM ascorbic acid, 20 ng/ml BDNF, 20 ng/ml GDNF, 1 ng/ml TGF-β 3, 10 μM DAPT, 2% (v/v) B27 (50×) (as control). The above HhPLT was produced from hPLT as follows. The hPLT was centrifuged at 3000 g for 30 min at 4° C. to obtain the supernatant, which was heated to 56° C. for 30 min. […] Cells were collected and counted by Vi-cell cytometer. The cells were analyzed by RT-qPCR for EN1, LMX1A, FOXA2, NURR1, SOX6 and TH gene expression. […]

imDAPs [3] = test: qRT-PCR analysis of mDA maturation associated markers; conditions: 1 μM IWR1 vs without IWR1; day 7
Procedure: 1. For qRT-PCR analysis of mRNA gene expression, RNA should be harvested from at least 2×10^6 cells. 2. Harvest cells, add 350 μl of buffer RLT+1% (vol/vol) β-mercaptoethanol to the well, transfer the lysate to a 1.5 ml tube, and put it immediately on ice. 3. Perform RNA extraction using the Tiangen Kit (DP430), and follow the manufacturer's protocol 'Purification of total RNA from animal and human cells'. 4. When the RNA extraction was completed, determine the RNA concentration using a Nanodrop instrument. 5. Perform the first-strand cDNA synthesis reaction with lug of RNA using the HiScriptTM II Q RT SuperMIX for qPCR (+gDNA wiper) Kit (Vazyme, #R223-01) for RT-qPCR. Follow the manufacturer's 'First-Strand cDNA Synthesis' protocol. This reaction would yield a 20μl product. 6. Dilute the 10 μl cDNA product in 80 μl of nuclease-free water. 7. […] Analyze the samples by running a quantitative PCR on the LightCycler 480 instrument using a 40× cycle two-step protocol with a 60° C., 60 sec annealing/elongation step and a 95° C., 30 sec denaturation step. […] Cells were collected and counted by Vi-cell cytometer. The cells were analyzed by RT-qPCR for EN1, LMX1A, FOXA2, NURR1, SOX6 and TH gene expression. […]

| SMILES | mDAP marker expression (EN1, LMX1A, FOXA2), qRT-PCR (FIG. 1C) (imDAPs [1]) | cell morphology on day 7 during maturation (FIG. 7D) (imDAPs [2]) | expression of NURR1, SOX6 and TH, qRT-PCR (FIG. 7E) (imDAPs [3]) |
| --- | --- | --- | --- |
| Cc1cnc(-c2cnc(NCCNc3ccc(C#N)cn3)nc2-c2ccc(Cl)cc2Cl)[nH]1 [CHIR99021] | allowed better maintenance of mDAP marker expression |  |  |
| O=C(Nc1cccc2cccnc12)c1ccc(N2C(=O)[C@@H]3[C@H](C2=O)[C@@H]2C=C[C@H]3C2)cc1 [IWR1] |  | showed more obvious neural fibers | increased |
